pIC50: −log10 of the molar value.
Tests used:
erbB2 tyrosine kinase = biological target: T1, erbB2 tyrosine kinase (Homo sapiens, UniProt P04626); assay: Protein tyrosine kinase phosphorylation assay, Test (a), erbB2; format: biochemical; conditions: ATP at Km concentration; read-out: IC50 Test (a): Inhibition of erbB2 tyrosine kinase protein phosphorylation
T1 construct: Recombinant intracellular fragments of EGFR, erbB2 and erbB4; made in house; host or cells: baculovirus/Sf21 insect cells
Method: (§1) This test measures the ability of a test compound to inhibit the phosphorylation of a tyrosine containing polypeptide substrate by EGFR, erbB2 and erbB4 tyrosine kinase enzyme.
(§2) Recombinant intracellular fragments of EGFR, erbB2 and erbB4 (accession numbers X00588, X03363 and L07868 respectively) were cloned and expressed in the baculovirus/Sf21 system. […]
(§3) Constitutive kinase activity of these recombinant proteins was determined by their ability to phosphorylate a synthetic peptide (made up of a random co-polymer of Glutamic Acid, Alanine and Tyrosine in the ratio of 6:3:1). […]
(§4) The immobilised phospho-peptide product of the reaction was detected by immunological methods. […] After further washing, HRP activity in each well of the plate was measured colorimetrically using 22′-Azino-di-[3-ethylbenzthiazoline sulfonate (6)]diammonium salt crystals (ABTS™ from Roche) as a substrate.
(§5) Quantification of colour development and thus enzyme activity was achieved by the measurement of absorbance at 405 nm on a Molecular Devices ThermoMax microplate reader. Kinase inhibition for a given compound was expressed as an IC50 value. […] The range of phosphorylation was calculated from the positive (vehicle plus ATP) and negative (vehicle minus ATP) control values.

EGFR tyrosine kinase = biological target: T2, EGFR tyrosine kinase (Homo sapiens, UniProt P00533); assay: Protein tyrosine kinase phosphorylation assay, Test (a), EGFR; format: biochemical; conditions: ATP at Km concentration; read-out: IC50 Test (a): Inhibition of EGFR tyrosine kinase protein phosphorylation
T2 construct: Recombinant intracellular fragments of EGFR, erbB2 and erbB4; made in house; host or cells: baculovirus/Sf21 insect cells
T2 sequence (P00533 669-1210 limits assumed): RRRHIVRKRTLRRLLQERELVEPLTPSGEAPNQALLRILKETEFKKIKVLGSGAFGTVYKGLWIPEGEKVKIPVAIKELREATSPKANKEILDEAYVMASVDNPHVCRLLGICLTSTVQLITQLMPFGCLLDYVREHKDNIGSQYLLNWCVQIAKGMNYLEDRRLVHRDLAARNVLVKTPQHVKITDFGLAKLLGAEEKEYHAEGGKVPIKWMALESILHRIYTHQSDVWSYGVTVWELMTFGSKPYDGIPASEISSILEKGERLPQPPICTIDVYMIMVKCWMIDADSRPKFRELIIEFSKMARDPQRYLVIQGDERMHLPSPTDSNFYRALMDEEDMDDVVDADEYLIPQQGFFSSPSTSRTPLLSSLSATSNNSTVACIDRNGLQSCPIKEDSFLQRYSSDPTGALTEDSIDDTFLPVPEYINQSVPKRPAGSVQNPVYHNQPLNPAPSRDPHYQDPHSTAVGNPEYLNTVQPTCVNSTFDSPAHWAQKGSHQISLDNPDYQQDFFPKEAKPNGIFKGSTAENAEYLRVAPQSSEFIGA
Method: as §1, §2, §3, §4, §5

[1] = biological target: T3, erbB2 in MCF7 derived cell line (Clone 24 cells) (Homo sapiens, UniProt P04626); assay: Clone 24 phospho-erbB2 cell assay, Test (c); format: cell-based; conditions: MCF7 derived Clone 24 cells, 4 hours; read-out: IC50 Test (c): Inhibition of erbB2 tyrosine kinase protein phosphorylation
T3 construct: a cell line that overexpresses full length wild type erbB2 protein; expressed in transfected cells; host or cells: MCF7 (breast carcinoma) cells, 'Clone 24'
T3 sequence (P04626 23-1255): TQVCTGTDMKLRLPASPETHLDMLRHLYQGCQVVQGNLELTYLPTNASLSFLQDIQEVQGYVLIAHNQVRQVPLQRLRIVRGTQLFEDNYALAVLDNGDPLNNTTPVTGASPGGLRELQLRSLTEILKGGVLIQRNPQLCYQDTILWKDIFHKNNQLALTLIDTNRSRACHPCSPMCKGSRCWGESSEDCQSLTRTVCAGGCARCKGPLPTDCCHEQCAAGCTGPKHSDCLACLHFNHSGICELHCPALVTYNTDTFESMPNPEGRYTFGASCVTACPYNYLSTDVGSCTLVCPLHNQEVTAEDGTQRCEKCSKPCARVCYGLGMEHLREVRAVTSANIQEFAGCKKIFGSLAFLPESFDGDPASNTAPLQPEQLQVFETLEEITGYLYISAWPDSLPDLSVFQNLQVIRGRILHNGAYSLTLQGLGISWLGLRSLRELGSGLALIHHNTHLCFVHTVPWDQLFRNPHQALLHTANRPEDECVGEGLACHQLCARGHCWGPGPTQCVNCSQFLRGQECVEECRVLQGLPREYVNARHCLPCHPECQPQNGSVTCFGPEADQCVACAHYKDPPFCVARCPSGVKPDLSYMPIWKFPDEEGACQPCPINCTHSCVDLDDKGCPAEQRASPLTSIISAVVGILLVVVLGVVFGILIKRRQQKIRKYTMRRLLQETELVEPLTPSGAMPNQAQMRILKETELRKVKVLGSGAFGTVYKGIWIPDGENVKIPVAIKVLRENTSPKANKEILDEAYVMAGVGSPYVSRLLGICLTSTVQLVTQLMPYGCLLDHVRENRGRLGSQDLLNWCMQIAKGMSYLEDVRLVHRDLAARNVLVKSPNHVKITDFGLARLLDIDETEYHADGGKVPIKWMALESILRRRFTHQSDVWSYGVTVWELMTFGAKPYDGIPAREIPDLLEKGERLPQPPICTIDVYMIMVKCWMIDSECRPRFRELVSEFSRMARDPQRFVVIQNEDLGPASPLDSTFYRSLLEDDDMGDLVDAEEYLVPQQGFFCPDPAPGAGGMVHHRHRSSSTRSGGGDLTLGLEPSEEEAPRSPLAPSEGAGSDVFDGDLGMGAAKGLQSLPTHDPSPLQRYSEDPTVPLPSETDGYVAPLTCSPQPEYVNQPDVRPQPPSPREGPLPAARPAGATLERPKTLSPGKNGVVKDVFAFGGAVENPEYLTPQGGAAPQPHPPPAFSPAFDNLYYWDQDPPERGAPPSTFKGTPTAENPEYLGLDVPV
Method: This immunofluorescence end point assay measures the ability of a test compound to inhibit the phosphorylation of erbB2 in a MCF7 (breast carcinoma) derived cell line which was generated by transfecting MCF7 cells with the full length erbB2 gene using standard methods to give a cell line that overexpresses full length wild type erbB2 protein (hereinafter ‘Clone 24’ cells).
Clone 24 cells were cultured in Growth Medium (phenol red free Dulbecco's modified Eagle's medium (DMEM) containing 10% foetal bovine serum, 2 mM glutamine and 1.2 mg/ml G418) in a 7.5% CO2 air incubator at 37° C. […] Cell density was measured using a haemocytometer and viability was calculated using Trypan Blue solution before being further diluted in Growth Medium and seeded at a density of 1×10^4 cells per well (in 100 μl) into clear bottomed 96 well plates (Packard, No. 6005182). […]
Immunostaining was performed at room temperature. […] Plates were analysed within six hours of completing the immunostaining.
The Fluorescence signal is each well was measured using an Acumen Explorer Instrument (Acumen Bioscience Ltd.), a plate reader that can be used to rapidly quantitate features of images generated by laser-scanning. […]

T1 sequence (P04626 676-1255 limits assumed): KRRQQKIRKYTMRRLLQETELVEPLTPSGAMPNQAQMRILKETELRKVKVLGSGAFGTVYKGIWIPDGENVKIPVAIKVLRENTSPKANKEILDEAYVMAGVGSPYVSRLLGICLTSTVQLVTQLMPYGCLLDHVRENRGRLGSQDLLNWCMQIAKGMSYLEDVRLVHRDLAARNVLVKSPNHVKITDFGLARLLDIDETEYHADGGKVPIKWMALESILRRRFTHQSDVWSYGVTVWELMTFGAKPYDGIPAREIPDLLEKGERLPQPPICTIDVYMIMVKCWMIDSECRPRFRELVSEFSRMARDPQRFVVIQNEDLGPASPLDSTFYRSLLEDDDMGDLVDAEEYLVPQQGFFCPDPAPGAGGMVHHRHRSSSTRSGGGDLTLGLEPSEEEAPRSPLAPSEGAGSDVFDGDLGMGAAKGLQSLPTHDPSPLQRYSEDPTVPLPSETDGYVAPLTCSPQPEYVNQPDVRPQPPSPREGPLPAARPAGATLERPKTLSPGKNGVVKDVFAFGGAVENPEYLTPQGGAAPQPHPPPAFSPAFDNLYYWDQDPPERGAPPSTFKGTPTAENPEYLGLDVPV

Row | pIC50 (erbB2 tyrosine kinase) | pIC50 (EGFR tyrosine kinase) | pIC50 [1] | SMILES
1 | 9.00 | 9.00 | – | O=C(CO)N1CCCC[C@@H]1COc1cccc2ncnc(Nc3ccc4c(ccn4Cc4ccccn4)c3)c12 [Example 1, 2-Oxo-2-((2R)-2-{[(4-{[1-(pyridin-2-ylmethyl)-1H-indol-5-yl]amino}quinazolin-5-yl)oxy]methyl}piperidin-1-yl)ethanol]
2 | 7.42 | 9.00 | 7.46 | O=C(CO)N1CCCC[C@@H]1COc1cccc2ncnc(Nc3ccc4c(ccn4Cc4cscn4)c3)c12 [Example 2, 2-Oxo-2-((2R)-2-{[(4-{[1-(1,3-thiazol-4-ylmethyl)-1H-indol-5-yl]amino}quinazolin-5-yl)oxy]methyl}piperidin-1-yl)ethanol]
